# Measured values taken from patent US20260335341A1, “METHODS FOR TREATING PAEDIATRIC NEUROLOGICAL DISORDERS” (Neurotech International Limited, priority 2022, published 2026).
# Where two headings read alike, the source gives them in different places.
# Experiments:
# [1] = Stability of NTI164 oil formulation at room temperature (UPLC)
# TNF-ALPHA = test: TNF-alpha in microglial culture media, psylocibin combination (Example 9); format: cell-based; conditions: PBS control 1.00, positive activation I&I 10.67
# Protocol: Microglia media harvested following treatment initiation was centrifuged briefly to remove particulates (300 g for 10 min). The level of TNFα in the microglial culture media was measured using a Bio-Plex 200 with a 96-well magnetic plate assay according to the manufacturer's instructions (Bio-Rad). The samples were run in duplicate that were averaged for analysis. At least three samples per group were run.
# [2] = NTI164 oil, room temperature, Day 14
compound,measurement,setting,value
"CCCCCc1cc2c(c(O)c1C(=O)O)[C@@H]1C=C(C)CC[C@H]1C(C)(C)O2 [(Tetrahydrocannabinolic acid) (D9-THCA), Delta-9-tetrahydrocannabinolic acid]","Cannabinoid content of NTI164, Day 14",[1],0.69 mg/mL
same,"Cannabinoid content of NTI164, Day 0","[1]; NTI164 oil, room temperature",0.66 mg/mL
same,"Cannabinoid content of NTI164, Day 2","[1]; NTI164 oil, room temperature",0.72 mg/mL
same,"Cannabinoid content of NTI164, Day 7","[1]; NTI164 oil, room temperature",0.64 mg/mL
same,"Cannabinoid content of NTI164, Day 28","[1]; NTI164 oil, room temperature",0.36 mg/mL
same,"Cannabinoid content of NTI164, Week 5","[1]; NTI164 oil, room temperature",0.79 mg/mL
same,"Cannabinoid content of NTI164, Week 6","[1]; NTI164 oil, room temperature",0.73 mg/mL
same,"Cannabinoid content of NTI164, Week 32","[1]; NTI164 oil, room temperature",<0.1 mg/mL
"CCCCCc1cc(O)c2c(c1)OC(C)(CCC=C(C)C)C=C2 (stereo not shown) [Cannabichrome(CBC), Cannabichromene]","Cannabinoid content of NTI164, Day 0","[1]; NTI164 oil, room temperature",1.23 mg/mL
same,"Cannabinoid content of NTI164, Day 2","[1]; NTI164 oil, room temperature",1.19 mg/mL
same,"Cannabinoid content of NTI164, Day 7","[1]; NTI164 oil, room temperature",1.34 mg/mL
same,"Cannabinoid content of NTI164, Day 14",[1]; [2],1.22 mg/mL
same,"Cannabinoid content of NTI164, Day 28","[1]; NTI164 oil, room temperature",1.27 mg/mL
same,"Cannabinoid content of NTI164, Week 5","[1]; NTI164 oil, room temperature",1.20 mg/mL
same,"Cannabinoid content of NTI164, Week 6","[1]; NTI164 oil, room temperature",1.15 mg/mL
same,"Cannabinoid content of NTI164, Week 32","[1]; NTI164 oil, room temperature",1.22 mg/mL
"C=C(C)[C@@H]1CCC(C)=C[C@H]1c1c(O)cc(CCCCC)c(C(=O)O)c1O [Cannabidiol acid (CBD-A), Cannabidiol acid]","Cannabinoid content of NTI164, Day 0","[1]; NTI164 oil, room temperature",48.16 mg/mL
same,"Cannabinoid content of NTI164, Day 2","[1]; NTI164 oil, room temperature",48.19 mg/mL
same,"Cannabinoid content of NTI164, Day 7","[1]; NTI164 oil, room temperature",48.62 mg/mL
same,"Cannabinoid content of NTI164, Day 14",[1]; [2],48.09 mg/mL
same,"Cannabinoid content of NTI164, Day 28","[1]; NTI164 oil, room temperature",47.12 mg/mL
same,"Cannabinoid content of NTI164, Week 5","[1]; NTI164 oil, room temperature",48.35 mg/mL
same,"Cannabinoid content of NTI164, Week 6","[1]; NTI164 oil, room temperature",47.56 mg/mL
same,"Cannabinoid content of NTI164, Week 32","[1]; NTI164 oil, room temperature",47.01 mg/mL
"C=C(C)[C@@H]1CCC(C)=C[C@H]1c1c(O)cc(CCC)cc1O [Cannabidivarin (CBDV), Cannabidivarin]","Cannabinoid content of NTI164, Day 0","[1]; NTI164 oil, room temperature",<0.1 mg/mL
same,"Cannabinoid content of NTI164, Day 2","[1]; NTI164 oil, room temperature",<0.1 mg/mL
same,"Cannabinoid content of NTI164, Day 7","[1]; NTI164 oil, room temperature",<0.1 mg/mL
same,"Cannabinoid content of NTI164, Day 14",[1]; [2],<0.1 mg/mL
same,"Cannabinoid content of NTI164, Day 28","[1]; NTI164 oil, room temperature",<0.1 mg/mL
same,"Cannabinoid content of NTI164, Week 5","[1]; NTI164 oil, room temperature",0.10 mg/mL
same,"Cannabinoid content of NTI164, Week 6","[1]; NTI164 oil, room temperature",<0.1 mg/mL
same,"Cannabinoid content of NTI164, Week 32","[1]; NTI164 oil, room temperature",0.13 mg/mL
"CCCCCc1cc(O)c(C/C=C(\C)CCC=C(C)C)c(O)c1 [Cannabigerol (CBG), Cannabigerol]","Cannabinoid content of NTI164, Day 0","[1]; NTI164 oil, room temperature",5.21 mg/mL
same,"Cannabinoid content of NTI164, Day 2","[1]; NTI164 oil, room temperature",5.23 mg/mL
same,"Cannabinoid content of NTI164, Day 7","[1]; NTI164 oil, room temperature",5.14 mg/mL
same,"Cannabinoid content of NTI164, Day 14",[1]; [2],5.1 mg/mL
same,"Cannabinoid content of NTI164, Day 28","[1]; NTI164 oil, room temperature",5.1 mg/mL
same,"Cannabinoid content of NTI164, Week 5","[1]; NTI164 oil, room temperature",5.30 mg/mL
same,"Cannabinoid content of NTI164, Week 6","[1]; NTI164 oil, room temperature",5.28 mg/mL
same,"Cannabinoid content of NTI164, Week 32","[1]; NTI164 oil, room temperature",5.12 mg/mL
"CCCCCc1cc(O)c(C/C=C(\C)CCC=C(C)C)c(O)c1C(=O)O [Cannabigerol Acid(CBG-A), Cannabigerolic acid]","Cannabinoid content of NTI164, Day 0","[1]; NTI164 oil, room temperature",1.07 mg/mL
same,"Cannabinoid content of NTI164, Day 2","[1]; NTI164 oil, room temperature",1.18 mg/mL
same,"Cannabinoid content of NTI164, Day 7","[1]; NTI164 oil, room temperature",1.20 mg/mL
same,"Cannabinoid content of NTI164, Day 14",[1]; [2],1.19 mg/mL
same,"Cannabinoid content of NTI164, Day 28","[1]; NTI164 oil, room temperature",0.81 mg/mL
same,"Cannabinoid content of NTI164, Week 5","[1]; NTI164 oil, room temperature",1.08 mg/mL
same,"Cannabinoid content of NTI164, Week 6","[1]; NTI164 oil, room temperature",1.00 mg/mL
same,"Cannabinoid content of NTI164, Week 32","[1]; NTI164 oil, room temperature",1.05 mg/mL
"CCCCCc1cc(O)c2c(c1)OC(C)(C)c1ccc(C)cc1-2 [Cannabinol (CBN), Cannabinol]","Cannabinoid content of NTI164, Day 14",[1],2.33 mg/mL
same,"Cannabinoid content of NTI164, Day 0","[1]; NTI164 oil, room temperature",2.32 mg/mL
same,"Cannabinoid content of NTI164, Day 2","[1]; NTI164 oil, room temperature",2.54 mg/mL
same,"Cannabinoid content of NTI164, Day 7","[1]; NTI164 oil, room temperature",2.48 mg/mL
same,"Cannabinoid content of NTI164, Day 28","[1]; NTI164 oil, room temperature",2.56 mg/mL
same,"Cannabinoid content of NTI164, Week 5","[1]; NTI164 oil, room temperature",2.22 mg/mL
same,"Cannabinoid content of NTI164, Week 6","[1]; NTI164 oil, room temperature",2.27 mg/mL
same,"Cannabinoid content of NTI164, Week 32","[1]; NTI164 oil, room temperature",2.21 mg/mL
"CCCCCc1cc(O)c2c(c1)OC(C)(C)C1CC=C(C)CC21 (stereo not shown) [DELTA-8-THC (D8-THC), Delta-8-tetrahydrocannabinol]","Cannabinoid content of NTI164, Day 14",[1],<0.1 mg/mL
same,"Cannabinoid content of NTI164, Day 0","[1]; NTI164 oil, room temperature",<0.1 mg/mL
same,"Cannabinoid content of NTI164, Day 2","[1]; NTI164 oil, room temperature",<0.1 mg/mL
same,"Cannabinoid content of NTI164, Day 7","[1]; NTI164 oil, room temperature",<0.1 mg/mL
same,"Cannabinoid content of NTI164, Day 28","[1]; NTI164 oil, room temperature",<0.1 mg/mL
same,"Cannabinoid content of NTI164, Week 5","[1]; NTI164 oil, room temperature",<0.1 mg/mL
same,"Cannabinoid content of NTI164, Week 6","[1]; NTI164 oil, room temperature",<0.1 mg/mL
same,"Cannabinoid content of NTI164, Week 32","[1]; NTI164 oil, room temperature",<0.1 mg/mL
"CN(C)CCc1c[nH]c2cccc(OP(=O)(O)O)c12 [SubP (Psylocibin), Psylocibin]",TNF-alpha assessment result,TNF-ALPHA; 1 ug/ml,4.87
same,TNF-alpha assessment result,TNF-ALPHA; 5 ug/ml,9.17
"CCCCCc1cc(O)c2c(c1)OC(C)(C)[C@@H]1CCC(C)=C[C@@H]21 [Tetrahydrocannabinol (D9-THC), Delta-9-tetrahydrocannabinol]","Cannabinoid content of NTI164, Day 0","[1]; NTI164 oil, room temperature",<0.1 mg/mL
same,"Cannabinoid content of NTI164, Day 2","[1]; NTI164 oil, room temperature",<0.1 mg/mL
same,"Cannabinoid content of NTI164, Day 7","[1]; NTI164 oil, room temperature",<0.1 mg/mL
same,"Cannabinoid content of NTI164, Day 14",[1]; [2],<0.1 mg/mL
same,"Cannabinoid content of NTI164, Day 28","[1]; NTI164 oil, room temperature",<0.1 mg/mL
same,"Cannabinoid content of NTI164, Week 5","[1]; NTI164 oil, room temperature",0.14 mg/mL
same,"Cannabinoid content of NTI164, Week 6","[1]; NTI164 oil, room temperature",<0.1 mg/mL
same,"Cannabinoid content of NTI164, Week 32","[1]; NTI164 oil, room temperature",0.11 mg/mL
"CCCc1cc(O)c2c(c1)OC(C)(C)[C@@H]1CCC(C)=C[C@@H]21 [Tetrahydrocannabivarin (THCV), Tetrahydrocannabivarin]","Cannabinoid content of NTI164, Day 14",[1],<0.1 mg/mL
same,"Cannabinoid content of NTI164, Day 0","[1]; NTI164 oil, room temperature",<0.1 mg/mL
same,"Cannabinoid content of NTI164, Day 2","[1]; NTI164 oil, room temperature",<0.1 mg/mL
same,"Cannabinoid content of NTI164, Day 7","[1]; NTI164 oil, room temperature",<0.1 mg/mL
same,"Cannabinoid content of NTI164, Day 28","[1]; NTI164 oil, room temperature",<0.1 mg/mL
same,"Cannabinoid content of NTI164, Week 5","[1]; NTI164 oil, room temperature",<0.1 mg/mL
same,"Cannabinoid content of NTI164, Week 6","[1]; NTI164 oil, room temperature",<0.1 mg/mL
same,"Cannabinoid content of NTI164, Week 32","[1]; NTI164 oil, room temperature",<0.1 mg/mL
